Columns and labels:
[1] = test system: MC38-OVA tumor cells; experiment: Murine MC38-OVA tumor model, in vivo CD8+ T cell depletion; conditions: OVA immunized mice; 3 mM MgCl2 vs NaCl i.t.; anti-CD8a Ab 10 mg kg^−1 i.p. weekly
Method: FIG. 1: Intratumoral magnesium administration improves adaptive anti-tumor immunity. (a) Schematic of experimental design. B1/6 mice, either immunized with OVA or left untreated, were inoculated subcutaneously with MC38-OVA tumor cells bilaterally on the flanks. From day 7, injection of 3 mM NaCl solution was applied in left flank tumor, whereas 3 mM MgCl2 solution was injected in contralateral tumor. This regimen was repeated every third day for a total of 8 cycles. (b) Tumor growth curves in non-immunized mice (n=20) (left panel), and immunized mice (n=19) (right panel). (c) Tumor growth curves in ±CD8 depleted mice (n=6-17). Results were pooled from 2 independent experiments, with n=6-12 mice each. (d) Absolute numbers of tumor-infiltrating CD8^+ T cells. (e) Number of tumor-infiltrating CD8^+ T cells positive for Ki67 (left panel), Granzyme B (middle panel) and CD25 (right panel). (f) Cell number of tumor-infiltrating CD8^+ T cells expressing PD-1 and Tim3. (g) Schematic of experimental design. B1/6 mice, immunized with OVA, were inoculated subcutaneously with MC38-OVA tumor cells unilaterally on the flank. From day 5, intratumoral injections of either 3 mM NaCl or 3 mM MgCl2 were initiated, and repeated every third day for 8 cycles. Mice were additionally injected with 200 μg i.p. of isotype control (IgG2a) or anti-PD-1 Ab on day 9, 12, and 15. […]

[2] = molecular target: T1, LFA-1 (Homo sapiens, UniProt P05107+P20701); experiment: Flow cytometry of LFA-1 conformations on PHA T cell blasts; assay type: cell-based
T1 construct: endogenous in cells; host or cells: primary human T cells from healthy donors: PHA-induced T cell blasts, sorted EM and naive CD8 T cells, and NY-ESO-1 TCR-transduced REP T cells
T1 sequence (P20701 26-1170): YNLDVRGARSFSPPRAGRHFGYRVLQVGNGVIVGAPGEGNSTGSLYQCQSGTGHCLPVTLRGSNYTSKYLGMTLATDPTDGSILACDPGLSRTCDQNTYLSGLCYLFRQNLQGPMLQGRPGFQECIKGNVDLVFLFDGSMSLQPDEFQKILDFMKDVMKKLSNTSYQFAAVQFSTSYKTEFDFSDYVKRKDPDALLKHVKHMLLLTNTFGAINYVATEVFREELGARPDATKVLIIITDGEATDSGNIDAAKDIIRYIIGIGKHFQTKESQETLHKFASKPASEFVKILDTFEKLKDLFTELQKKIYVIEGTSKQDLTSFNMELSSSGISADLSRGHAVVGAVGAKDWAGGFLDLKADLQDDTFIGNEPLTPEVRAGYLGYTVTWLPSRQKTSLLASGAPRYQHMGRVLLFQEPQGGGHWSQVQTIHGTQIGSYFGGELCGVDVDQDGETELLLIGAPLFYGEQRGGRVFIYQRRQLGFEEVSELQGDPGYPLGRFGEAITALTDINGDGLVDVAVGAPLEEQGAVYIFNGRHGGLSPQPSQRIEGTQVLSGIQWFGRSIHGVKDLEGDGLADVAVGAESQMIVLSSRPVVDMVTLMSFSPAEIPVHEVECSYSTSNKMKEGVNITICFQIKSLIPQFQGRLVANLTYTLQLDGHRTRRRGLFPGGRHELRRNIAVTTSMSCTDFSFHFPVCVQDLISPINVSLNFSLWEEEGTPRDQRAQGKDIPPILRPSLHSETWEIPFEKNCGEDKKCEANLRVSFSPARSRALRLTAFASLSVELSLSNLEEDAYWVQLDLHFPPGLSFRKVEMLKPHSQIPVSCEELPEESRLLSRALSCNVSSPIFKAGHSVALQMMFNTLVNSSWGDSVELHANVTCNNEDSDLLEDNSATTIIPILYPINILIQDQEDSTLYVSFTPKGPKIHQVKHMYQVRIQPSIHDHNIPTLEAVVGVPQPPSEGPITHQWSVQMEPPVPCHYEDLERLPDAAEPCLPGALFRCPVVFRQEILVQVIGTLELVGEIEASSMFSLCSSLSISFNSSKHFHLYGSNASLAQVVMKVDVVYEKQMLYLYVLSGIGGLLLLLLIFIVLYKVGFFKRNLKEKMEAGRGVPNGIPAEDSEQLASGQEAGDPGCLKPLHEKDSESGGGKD
T1 sequence (P05107 23-769): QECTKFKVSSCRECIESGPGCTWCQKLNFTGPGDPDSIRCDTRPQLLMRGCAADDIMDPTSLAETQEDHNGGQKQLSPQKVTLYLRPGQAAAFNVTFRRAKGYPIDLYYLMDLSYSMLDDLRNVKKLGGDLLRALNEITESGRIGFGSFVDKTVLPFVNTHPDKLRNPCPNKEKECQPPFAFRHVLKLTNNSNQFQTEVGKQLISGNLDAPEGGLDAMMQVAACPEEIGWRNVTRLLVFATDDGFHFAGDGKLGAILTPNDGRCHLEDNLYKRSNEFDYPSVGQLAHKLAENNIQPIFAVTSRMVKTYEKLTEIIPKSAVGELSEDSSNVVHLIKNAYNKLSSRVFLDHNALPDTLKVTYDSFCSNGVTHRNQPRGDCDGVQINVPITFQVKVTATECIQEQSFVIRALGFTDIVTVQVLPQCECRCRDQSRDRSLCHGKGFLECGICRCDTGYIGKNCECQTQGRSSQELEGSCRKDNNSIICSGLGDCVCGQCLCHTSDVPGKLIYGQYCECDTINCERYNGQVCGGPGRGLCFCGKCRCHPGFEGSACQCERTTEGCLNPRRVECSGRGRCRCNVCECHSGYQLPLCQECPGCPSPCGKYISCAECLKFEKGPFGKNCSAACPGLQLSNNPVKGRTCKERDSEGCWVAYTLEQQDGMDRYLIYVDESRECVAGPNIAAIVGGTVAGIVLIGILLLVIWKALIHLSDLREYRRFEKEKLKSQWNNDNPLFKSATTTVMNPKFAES
Method: Glycolytic switch of human EM CD8 T cells (a) and naïve CD8 T cells (b) subsets upon injection of anti-CD3 Ab only, or anti-CD3 and anti-CD28 Ab, was assessed by metabolic flux analysis in medium containing either 1.2 mM Mg^2+, 0 mM Mg^2+, or medium which was reconstituted from 0 mM to 1.2 mM Mg^2+ immediately prior to activation (0→1.2 mM Mg^2+). (a) Results for human effector memory (EM) and (b) for human naïve CD8 T cells. Glycolytic switch was quantified by subtracting […] measurements. (c) Flow cytometric analysis of surface activation markers on human EM CD8 T cells 24 hours after activation by plate-bound anti-CD3 Ab and soluble anti-CD28 Ab, in 1.2 mM and 0 mM Mg^2+ media, respectively. (d) Abundance of inflammatory cytokines in corresponding EM CD8 T cell culture supernatants, determined by CBA. (e) CD11a (LFA-1) surface expression on human naïve and EM CD8 T cells as well PHA T cell blasts. Flow cytometry-based assessment of total LFA-1 expression assessed by mAb TS2/4 (f), closed conformation of αL by mAb HI111 (g), extended conformation of LFA-1 by mAb Kim127 (h), open head-piece conformation of LFA-1 by mAb m24 (i), phosphorylation of focal adhesion kinase (FAK) […] as well TNF expression (k)±TCR-induced activation in different extracellular Mg^2+ concentrations. (l) Flow cytometry-based assessment of LFA-1 with open-head piece conformation on human EM and naïve CD8 T cells using the open head-piece reporter mAb m24. (m) Assessment of glycolytic switch of EM CD8 T cells. (n) Assessment of glycolytic switch of naïve CD8 T cells. […] Naïve CD8 T cells were activated with in house generated anti-CD3/anti-CD28 coated microbeads. Polybead microspheres ([…], Polyscience […]) were incubated with 1 μg anti-CD3 Ab and 10 μg anti-CD28 Ab. […] Primary human T cells were activated for 24 h and PHA-blasts for 4 h. For evaluation of activation induced LFA-1 head-piece opening, T cells were activated for […] and anti-human CD11a/CD18 (clone m24) was directly added in medium and incubated on ice for 20 min. Cells were then washed twice in FACS Buffer and fixed in 2% PFA, incubated at room temperature for 20 min and washed with FACS Buffer before acquisition. […] For stainings with HI111, the cells were activated for 45 min, fixed with 2% PFA and subsequently stained with HI111 and washed with FACS Buffer before acquisition.

[3] = PHA T cell blasts ±TCR-induced activation, different extracellular Mg^2+ concentrations

SMILES: [Mg+2] [Mg^2+, Magnesium]
- Tumor growth in ±CD8 depleted mice [1]: exerted its effect via CD8^+ T cells
- Extended conformation of LFA-1 (mAb KIM127) ([2]; PHA T cell blasts upon T-cell activation, increasing extracellular Mg^2+ concentrations): dose-dependent KIM127 signal increase
- Inactive/bent LFA-1 conformation (mAb HI111) ([2]; PHA T cell blasts upon TCR stimulation, decreasing extracellular Mg^2+ concentrations): higher levels of inactive LFA-1
- Open head-piece conformation of LFA-1 (mAb m24) [2, 3]: strongly depending on extracellular Mg^2+ concentration
- Total LFA-1 expression (mAb TS2/4 epitope) [2, 3]: independent on the extracellular Mg^2+ concentration
- LFA-1 activation in unstimulated T cells ([2]; ±Mg^2+, data not shown): did not differ

Reference: patent US20240010726A1, “LFA-1 SIGNALLING MEDIATOR FOR USE IN CANCER THERAPY” (Universität Basel, priority 2020, published 2024)
